Reference: US6645903B2, “Fluoroborane salts comprising a reactive cation and uses thereof” (Colorado State University Research Foundation, priority 2000, dated 2003)

How the values were obtained:
[1] = Procedure: Hexanes and an excess of trimethylaluminum were removed under vacuum.
A mixture of [CPh3][(CH3)3NB12F11] […] A mixture was stirred under a nitrogen atmosphere for 20 h.
The orange microcrystalline compound (CPh3)2B12F12 (0.195 g, 0.231 mmol) was treated with 2 ml of toluene solution of AlMe3 (0.161 g, 2.240 mmol). […] The mixture was stirred for additional 40 hours.

[2] = Stability in solution and on storage; type: physicochemical
Procedure: where R^1, R^2, Q, M^1, m, n, and q are those defined above. […] In addition, unlike many other aluminum metal catalysts, Compound of Formula IA has a relatively high solubility in aliphatic hydrocarbon solvents. For example, the compound AlMe2(1-Dd-CB11F11), where Dd is dodecyl, is soluble in hexanes and methylcyclohexane and stable for at least 10 days at 25° C.
A suspension of CPh3(1-Et-CB11F11) (0.412 g, 0.67 mmol) in pentane (40 ml) was treated with a solution of Si(i-Pr)3H (0.215 g, 1.36 mmol, 2 equiv.) in pentane (10 ml) for 20 hours at room temperature. The mixture was treated with more Si(i-Pr)3H (0.56 g, 3.54 mmol) for another 20 hours. (Note, that a large excess of Si(i-Pr)3H (˜7 equiv.) required for the reaction to go to completion. A slightly pink pentane solution was filtered from a small amount of red-brown oily solid (˜20 mg, which upon dissolving of in acetonitile was identified as a mixture of CPh3(1-Et-CB11F11) and [Si(i-Pr)3(CD3CN)][1-Et-CB11F11]. The volume of the pentane solution was reduced to ˜5 ml, which caused the formation of white solid. The solid was separated by filtration, washed three times with 1 ml of pentane and dried under nitrogen atmosphere inside the glove box. The yield of Si(i-Pr)3(1-Et-CB11F11) as an off-white crystalline solid was 0.198 g (56%). […]

[3] = Polymerization of ethylene in hexanes; settings: hexanes solution, 24° C., 703 torr ethylene, 18 h
Procedure: A suspension of [CPh3][1-C12H25-CB11F11] (5.0 mg) in 0.5 ml of methylcyclohexane-d14 was treated with 0.5 ml of methylcyclohexane-d14 solution of Al(CH3)3 (2.2 mg) for 20 h. […] The filtrate was diluted with 7 ml of hexanes and transferred into a 50 ml Kontes tube. The solution was treated with 703 torr of ethylene for 18 h at 24° C. and small amount of white solid was formed. The mixture was treated with 3 ml of methanol for 20 minutes. A solid polyethylene was collected (3 mg) by filtration and characterized by DSC (Tm=126° C.).

[4] = Polymerization of ethylene with one equivalent of Cp2ZrMe2; settings: with Cp2ZrMe2, hexanes, 660 torr ethylene, from ethylene pressure decrease
Procedure: A suspension of [CPh3][1-C12H25-CB11F11] (5.0 mg) in 0.5 ml of methylcyclohexane-d14 was treated with 0.5 ml of methylcyclohexane-d14 solution of Al(CH3)3 (2.2 mg) for 20 h. […] The filtrate was diluted with 7 ml of hexanes and transferred into a 50 ml Kontes tube. The solution was treated with 1 ml of hexanes solution of Cp2ZrMe2 (1.3 mg). The mixture was treated with 660 torr of ethylene. The ethylene pressure was decreased to 470 torr within 5 minutes due to the formation of polyethylene (white solid). More ethylene (812 torr) was added to the mixture and the ethylene pressure was decreased to 295 torr within the next 2 hours. The mixture was quenched with 5 ml of methanol and stirred for 20 minutes. A solid polyethylene was collected (210 mg) by filtration and characterized by DSC (Tm=129° C.). The catalytic activity during the first 5 minutes (good agitation) was calculated based on the ethylene pressure decrease and was at least 150 kg PE/mol Zr·h·atm.

[5] = Zirconocene catalyzed selective dimerization of 1-hexene; settings: for turnovers number within the first five minutes: co-catalyst with Cp2ZrMe2, first five minutes
Procedure: A solution of Al(CH3)2(1-[…]-CB11F11) (6.1 mg, 10.8 μmol) in 0.28 ml of methylcyclohexane was treated with a solution of Cp2ZrMe2 (2.3 mg, 9.1 μmol) in 1-hexene (3.654 g). The resulted mixture was stirred under a nitrogen atmosphere and the samples were taken from the reaction mixture after 5 minutes and 55 minutes. According to ^1H NMR spectra of the reaction mixtures approximately 33% of 1-hexene were reacted within 5 minutes, and approximately 99% of 1-hexene were reacted within 55 minutes. The reaction was exothermic as indicated by the significant self-heating of the reaction mixture during the reaction. The reaction products were analyzed by ^1H, ^13C NMR and GC-MS. According to the analysis the reaction mixture contained 83% of 1-hexene dimerization products (more than 95% of 2-butyl-1-octene) and 17% of 1-hexene isomerization products (the distribution of hexene isomers was as follows: E-2 hexene-56%, Z-2 hexene-26%, E-3 hexene-15%, and Z-3 hexene-3%). The total turnovers number of the activated zirconocene catalyst was calculated to be 4780 (87 TON·min^−1). The turnovers number within the first five minutes of the reaction was approximately 315 TON·min^−1

[6] = Arene-olefin coupling of toluene-d8 with ethylene; settings: toluene-d8, 656 torr ethylene, 14.5 hours, 24° C.
Procedure: Compounds of Formula IA are useful in a variety of organic reactions including in an arene-olefin coupling reaction. Thus, when the above reaction was repeated under one atmosphere of ethylene (CH2═CH2), a GC-MS analysis of the reaction mixture after 14.5 hr at 24° C. indicated the catalytic formation of all three positional isomers (i.e., the ortho (47%), meta (35%), and para (18%) isomers) of C6D4(CD3)(CH2CH2D) (the number of turnovers in this particular experiment was approximately 60-70. Without being bound any theory, the proposed catalytic scheme, which includes the catalytic activation of aromatic C—H bonds and the catalytic insertion of ethylene into an aluminum-aryl bond, is shown in FIG. 1 in a generic scheme using C6H6 as the substrate instead of C6D5CD3 for simplicity (the coordinated fluorocarborate anion (i.e., Q moiety) has also been omitted from the scheme for simplicity). It should be appreciated that the AlPh2^+1 species shown in FIG. 1 may in fact be a mixture of AlPh2^+1 and AlMePh^+1 species.
A compound Al(CH3)2(1-CH3-CB11F11) (2 mg) was dissolved in 1 ml of toluene-d8 and transferred into a sealable NMR tube. The solution was degassed under vacuum and treated with 656 torr of ethylene for 14.5 hours at 24° C. Proton NMR spectrum of the solution indicated the formation of ethyltoluene. […]

[7] = Alkylation of benzene with 1-hexene; settings: benzene + 1-hexene, 25 hours
Procedure: A mixture of Al(CH3)2(1-CH3-CB11F11) (2.5 mg, 4.4 μmol), benzene (0.964 g, 12.4 mmol) and 1-hexene (0.224 g, 2.7 mmol) was stirred for 25 hours under a nitrogen atmosphere. […] A GC-MS analysis of the reaction mixture indicated the formation of monohexylbenzenes (29%), dihexylbenzenes (20%) and trihexylbenzenes (51%). The relative amounts of 2-phenylhexane and 3-phenylhexane were 70% and 30%, respectively. Total turnovers number of aluminum alkyl catalyst was calculated to be approximately 606 (24 TON/h).

[8] = cited from earlier work
[9] = cited from earlier work; remark: listed apart in the source
[10] = similar transformation, comparison value; cited from earlier work

(AlMe2)2B12F12
solubility in acetonitrile-d3 [1]: dissolved
solubility in toluene [1]: not soluble

Al(CH3)2(1-C12H25-CB11F11)
stable in solution ([2]; hexanes and methylcyclohexane, 25° C.): at least 10 days
activity for polymerization of ethylene [3]: approximately 33 g PE/mol Al·h·at
catalytic activity during the first 5 minutes [4]: at least 150 kg PE/mol Zr·h·atm
total turnovers number of the activated zirconocene catalyst ([5]; co-catalyst with Cp2ZrMe2, 1-hexene, 55 minutes): 4780
turnover rate over whole reaction ([5]; co-catalyst with Cp2ZrMe2, 55 minutes): 87 TON·min^−1
turnovers number within the first five minutes [5]: 315 TON·min^−1
turnovers number within the first five minutes ([5]; listed as Al(CH3)2(1-C2H25-CB11F11)): approximately 315 TON·min^−1
1-hexene reacted ([5]; within 5 minutes): approximately 33%
1-hexene reacted ([5]; within 55 minutes): approximately 99%

Al(CH3)2(1-CH3-CB11F11)
number of turnovers (TON), formation of ethyltoluene [6]: approximately 66
number of turnovers (TON), formation of ethyltoluene ([6]; listed as AlMe2(1-Me-CB11F11)): 60-70
total turnovers number of aluminum alkyl catalyst [7]: approximately 606
turnover rate [7]: 24 TON/h

Al(CH3)2((CH3)3NB12F11)
solubility in acetonitrile-d3 [1]: completely dissolved
solubility in toluene [1]: not soluble

Si(i-Pr)3(1-Et-CB11F11)
sensitivity to traces of water ([2]; solid, storage under nitrogen): extremely sensitive

methylalurnoxane [MAO]
solubility in aliphatic hydrocarbon solvents [8]: limited solubilities
stability when stored in solution [9]: not stable
activity, conventional co-catalyst [10]: 30 TON ·min^−1
total turnovers number of the catalyst, conventional co-catalyst [10]: 500
